pIC50: −log10 of the molar value. Like-named read-outs stand apart in the source and are kept apart here.
Key:
avoidance behavior = test: Discrete Avoidance - Rats (avoidance block / escape block); type: in vivo, rat; conditions: for Discrete Avoidance, % Block: Rats, 40 mg/kg, oral
Excerpt: For example, by one procedure, trained rats are placed in experimental chambers equipped with a response lever, a steel grid floor for delivery of electric shock and a loudspeaker for presentation of auditory stimuli. […] The rats can terminate a trial at any point by depression of the response lever. A response during the initial fifteen-second warning tone ends the trial before shock delivery and is considered an avoidance response, while a response occurring during shock delivery is an escape response. Trials are presented every two minutes during a one-hour test session (30 trials per session). […] Compounds are administered to a minimum of three to four rats at each dose level over a range of doses. Rats receive vehicle alone, during control sessions prior to drug administration. Each rat is tested daily or weekly, after a single drug administration, until avoidance behavior returns to pre-drug baseline levels. The session is divided into three consecutive twenty minute (ten trial) segments. Response counts are summed over all subjects at a given dose within each segment. […] This number is expressed as a percentage of the total trials within the segment. […] The lowest dose which produced a 20% block of escape responding (EBD 20) is read from a graphic dose-effect plot. In obtaining these values, percent effect is plotted against the log dose.

Serum Prolactin = Serum Prolactin Levels (Rats); type: in vivo, rat; conditions: 15 mg/kg, oral
[1] = Acute toxicity (LD50) in mice after a single dose; conditions: mouse, in vivo
revertant colonies = test: Ames procedure (mutagenicity)
[2] = system: Apomorphine Induced Emesis; test: Apomorphine Induced Emesis antagonism (Dogs); type: in vivo, dog; conditions: for Apomorphine Induced Emesis % Antagonism: Dogs, 5 mg/kg, subcutaneous
[3] = system: Amphetamine Induced Rotation; test: Amphetamine Induced Rotation antagonism (S. Nigra Lesioned Rats) / Rotation Antagonism; type: in vivo, rat; conditions: for Amphetamine Induced Rotation % Antagonism: S. Nigra Lesioned Rats, 40 mg/kg, oral
Prolactin Secretion = Prolactin Secretion (in-vitro); type: cell-based; conditions: Rat, read-out: Prolactin Secretion ID50
[4] = system: Confinement Motor Activity; test: Confinement Motor Activity; type: in vivo; conditions: 168 h; Rat, PO, 7 Days Post-Drug; read-out: Confinement Motor Activity DD50
[5] = system: Dopamine Turnover-Brain Caudate; test: Dopamine Turnover-Brain, Caudate; type: in vivo; conditions: Rat, 40 mg/kg PO, 7 Days Post-Drug
Pole-Climb Avoidance = test: Pole-Climb Avoidance, % Block; type: in vivo, rat; conditions: Rats, 40 mg/kg, oral
[6] = molecular target: T1, 3H--Spiroperidol Binding-Caudate (Rattus norvegicus, UniProt P61169); test: biochemical
T1 construct: from tissue; host or cells: caudate (brain)
T1 sequence (P61169 whole entry): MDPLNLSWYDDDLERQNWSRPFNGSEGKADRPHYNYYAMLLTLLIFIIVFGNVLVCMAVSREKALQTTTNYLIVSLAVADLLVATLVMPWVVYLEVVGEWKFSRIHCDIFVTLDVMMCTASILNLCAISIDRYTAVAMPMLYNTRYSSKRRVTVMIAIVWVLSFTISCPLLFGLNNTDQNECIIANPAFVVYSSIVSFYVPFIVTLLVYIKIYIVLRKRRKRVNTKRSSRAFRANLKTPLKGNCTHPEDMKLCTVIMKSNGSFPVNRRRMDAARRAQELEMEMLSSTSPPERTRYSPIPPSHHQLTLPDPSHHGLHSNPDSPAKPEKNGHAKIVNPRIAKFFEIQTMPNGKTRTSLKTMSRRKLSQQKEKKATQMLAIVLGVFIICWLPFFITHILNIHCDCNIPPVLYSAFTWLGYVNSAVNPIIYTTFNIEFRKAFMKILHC

[7] = molecular target: T2, Dopamine Adenylate Cyclase (Rattus norvegicus, UniProt P18901); test: biochemical; conditions: in-vitro, read-out: Dopamine Adenylate Cyclase Inhibition-Limbic IC50
T2 construct: from tissue; host or cells: limbic brain tissue
T2 sequence (P18901 whole entry): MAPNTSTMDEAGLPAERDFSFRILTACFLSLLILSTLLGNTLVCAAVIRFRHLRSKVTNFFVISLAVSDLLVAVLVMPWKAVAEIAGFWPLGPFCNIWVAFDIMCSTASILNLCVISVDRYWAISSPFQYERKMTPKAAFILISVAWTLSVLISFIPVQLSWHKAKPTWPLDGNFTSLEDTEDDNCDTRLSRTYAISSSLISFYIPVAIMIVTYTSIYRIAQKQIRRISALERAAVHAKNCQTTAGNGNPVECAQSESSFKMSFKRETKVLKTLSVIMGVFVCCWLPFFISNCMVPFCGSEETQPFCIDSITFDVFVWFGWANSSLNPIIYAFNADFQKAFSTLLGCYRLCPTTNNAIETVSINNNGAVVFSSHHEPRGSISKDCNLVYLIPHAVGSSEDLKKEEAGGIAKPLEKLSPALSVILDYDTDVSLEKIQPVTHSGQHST

[8] = system: Dopamine Turnover-Brain Limbic and Remainder; test: Dopamine Turnover-Brain, Limbic and Remainder; type: in vivo; conditions: Rat, 40 mg/kg PO, 7 Days Post-Drug
Continuous Avoidance [9] = test: Continuous Avoidance, % Decrease of Responding (Rats); type: in vivo, rat; conditions: 40 mg/kg, oral
Continuous Avoidance [10] = test: Continuous Avoidance (Squirrel Monkeys); type: in vivo, squirrel monkey; conditions: for Continuous Avoidance, % Decrease of Responding: Squirrel Monkeys, 5 mg/kg, oral

Compound: CC(C)NC[C@H](O)COc1ccc(OCCN2CCN(CCCN3c4ccccc4Sc4ccc(Cl)cc43)CC2)cc1.Cl.Cl.Cl [Compound A, (S)-1-(1-methylethylamino)-3-[4-[2-[4-[3-(2-chloro-10H-phenothiazin-10-yl)propyl]piperazine-1-yl]ethoxy]phenoxy]-2-propanol trihydrochloride]
- Duration of Sig. Activity (avoidance behavior; 40 mg/kg po): 8 weeks
- Time of Peak Effect (avoidance behavior; 40 mg/kg po): 2 to 10 days
- ED50 (avoidance behavior; 168 h, Rat, PO, 7 Days Post-Drug, read-out: Discrete Avoidance ABD50): 19 mg/kg
- EBD20/ABD50 Ratio (avoidance behavior; Rat, PO, 7 Days Post-Drug): > 2.1
- Discrete Avoidance, % Block (avoidance behavior; single administration, 1-4 hours): 40%
- Discrete Avoidance, % Block (avoidance behavior; 1 week): 84%
- Discrete Avoidance, % Block (avoidance behavior; 2-4 hours): 78%
- Discrete Avoidance, % Block (avoidance behavior; 2 weeks): 80%
- Discrete Avoidance, % Block (avoidance behavior; 3 weeks): 84%
- Discrete Avoidance, % Block (avoidance behavior; 4 weeks): 82%
- Discrete Avoidance, % Block (avoidance behavior; 5 weeks): 56%
- Discrete Avoidance, % Block (avoidance behavior; 6 weeks): 50%
- Discrete Avoidance, % Block (avoidance behavior; 7 weeks): 31%
- Discrete Avoidance, % Block (avoidance behavior; 8 weeks): 30%
- inhibition in vivo at 40 mg/kg (avoidance behavior; Rattus norvegicus, 1 h, 40 mg/kg po, 60 min. post-drug, read-out: Percentage Block of Avoidance, 60 min. post-drug): 40%
- ED50 (avoidance behavior; Rattus norvegicus, po, 7-10 days after administration, read-out: ABD50): 13.5 mg/kg
- inhibition in vivo at 40 mg/kg (avoidance behavior; Rattus norvegicus, 40 mg/kg po, 24 hrs. post-drug, read-out: Percentage Block of Avoidance, 24 hrs. post-drug): 77%
- inhibition in vivo at 40 mg/kg (avoidance behavior; Rattus norvegicus, 40 mg/kg po, at the indicated duration, read-out: Avoidance block at Duration of Sig. Activity (AB)): 30%
- inhibition in vivo at 40 mg/kg (avoidance behavior; Rattus norvegicus, 40 mg/kg po, at time of peak effect, read-out: Avoidance block at Time of Peak Effect (AB)): 90%
- duration of neuroleptic effect (in words) (avoidance behavior; discrete avoidance procedure): several weeks
- time of maximum neuroleptic activity after administration (avoidance behavior; p.o.): 7 to 10 days
- Serum Prolactin Levels % Increase (Serum Prolactin; 1-4 hours): 215%
- Serum Prolactin Levels % Increase (Serum Prolactin; 1 week): 525%
- Serum Prolactin Levels % Increase (Serum Prolactin; 2-4 hours): 97%
- Serum Prolactin Levels % Increase (Serum Prolactin; 3 weeks): 251%
- Serum Prolactin Levels % Increase (Serum Prolactin; 4 weeks): 56%
- LD50 at 24 h ([1]; ip, 24 hours): 77.5 mg/kg
- LD50 at 168 h ([1]; po, 7 days): 45 mg/kg
- revertant colonies (Ames) (revertant colonies): increased revertant colonies at the highest concentration tested
- ED50 ([2]; Canis lupus familiaris, 168 h, Dog, SC, 7 Days Post-Drug, read-out: Anti-Apomorphine Emesis ED50): < 5 mg/kg
- Apomorphine Induced Emesis % Antagonism ([2]; 1-4 hours): 93%
- Apomorphine Induced Emesis % Antagonism ([2]; 1 week): 100%
- Apomorphine Induced Emesis % Antagonism ([2]; 2-4 hours): 100%
- Apomorphine Induced Emesis % Antagonism ([2]; 2 weeks): 100%
- Apomorphine Induced Emesis % Antagonism ([2]; 3 weeks): 100%
- Apomorphine Induced Emesis % Antagonism ([2]; 4 weeks): 100%
- Apomorphine Induced Emesis % Antagonism ([2]; 5 weeks): 100%
- Apomorphine Induced Emesis % Antagonism ([2]; 6 weeks): 100%
- Apomorphine Induced Emesis % Antagonism ([2]; 7 weeks): 56%
- Apomorphine Induced Emesis % Antagonism ([2]; 8 weeks): 40%
- ED50 ([3]; 168 h, Rat, PO, 7 Days Post-Drug): < 15 mg/kg
- Amphetamine Induced Rotation % Antagonism ([3]; 1-4 hours): 14%
- Amphetamine Induced Rotation % Antagonism ([3]; 1 week): 97%
- Amphetamine Induced Rotation % Antagonism ([3]; 2 weeks): 95%
- Amphetamine Induced Rotation % Antagonism ([3]; 3 weeks): 87%
- Amphetamine Induced Rotation % Antagonism ([3]; 4 weeks): 87%
- Amphetamine Induced Rotation % Antagonism ([3]; 5 weeks): 62%
- Amphetamine Induced Rotation % Antagonism ([3]; 6 weeks): 28%
- Amphetamine Induced Rotation % Antagonism ([3]; 7 weeks): 4%
- pIC50 (Prolactin Secretion): 7.82
- ED50 [4]: 19.6 mg/kg
- Dopamine Turnover-Brain, Caudate [5]: Signif. .uparw.
- Pole-Climb Avoidance, % Block (Pole-Climb Avoidance; 1-4 hours): 30%
- Pole-Climb Avoidance, % Block (Pole-Climb Avoidance; 1 week): 50%
- Pole-Climb Avoidance, % Block (Pole-Climb Avoidance; 2 weeks): 44%
- Pole-Climb Avoidance, % Block (Pole-Climb Avoidance; 3 weeks): 11%
- pIC50 [6]: 8.74
- pIC50 [7]: 6.30
- Dopamine Turnover-Brain, Limbic and Remainder [8]: Not signif.
- Continuous Avoidance, % Decrease of Responding (Continuous Avoidance [9]; 1-4 hours): 0%
- Continuous Avoidance, % Decrease of Responding (Continuous Avoidance [9]; 1 week): 97%
- Continuous Avoidance, % Decrease of Responding (Continuous Avoidance [9]; 2-4 hours): 59%
- Continuous Avoidance, % Decrease of Responding (Continuous Avoidance [9]; 2 weeks): 96%
- Continuous Avoidance, % Decrease of Responding (Continuous Avoidance [9]; 3 weeks): 93%
- Continuous Avoidance, % Decrease of Responding (Continuous Avoidance [9]; 4 weeks): 84%
- Continuous Avoidance, % Decrease of Responding (Continuous Avoidance [9]; 5 weeks): 82%
- Continuous Avoidance, % Decrease of Responding (Continuous Avoidance [9]; 6 weeks): 55%
- Continuous Avoidance, % Decrease of Responding (Continuous Avoidance [9]; 7 weeks): 48%
- Continuous Avoidance, % Decrease of Responding (Continuous Avoidance [9]; 8 weeks): 32%
- minimal effective dose (Continuous Avoidance [10]; Primates, 168 h, Squirrel Monkey, PO, 7 Days Post-Drug, read-out: Continuous Avoidance MED Shocks): < 5 mg/kg
- Continuous Avoidance, % Decrease of Responding (Continuous Avoidance [10]; 1-4 hours): 0%
- Continuous Avoidance, % Decrease of Responding (Continuous Avoidance [10]; 1 week): 35%
- Continuous Avoidance, % Decrease of Responding (Continuous Avoidance [10]; 2-4 hours): 15%
- Continuous Avoidance, % Decrease of Responding (Continuous Avoidance [10]; 2 weeks): 37%
- Continuous Avoidance, % Decrease of Responding (Continuous Avoidance [10]; 3 weeks): 24%

— patent US4471116A, “Substituted (10H-phenothiazin-10-L)-propyl-1-piperazines” (Hoffmann-La Roche Inc., priority 1982, dated 1984)
